Tests used:
[1] = therapeutic oral dose levels
[2] = system: type 2 diabetes patients with insufficient glycemic control on metformin plus sulfonylurea; test: 24-wk placebo-controlled study of linagliptin add-on to metformin plus sulfonylurea
[3] = system: type 2 diabetes mellitus patients with insufficient glycemic control on metformin; conditions: human, in vivo, 24 weeks
[4] = system: inadequately controlled, metformin-treated type 2 diabetic patients; test: 12-week randomized, double-blind study of BI 1356 add-on to metformin vs placebo or open label glimepiride; conditions: 12 weeks

CC#CCn1c(N2CCC[C@@H](N)C2)nc2c1c(=O)n(Cc1nc(C)c3ccccc3n1)c(=O)n2C [BI 1356]
excreted via the kidney [1]: < 7 % of the administered oral dose
route of excretion [1]: primarily excreted unchanged via the bile
insulin resistance (HOMA-IR) ([2]; LI vs. PBO, FAS, P<0.05): improve
β-cell function (HOMA-% B) ([2]; LI vs. PBO, FAS, P<0.05): improve
adjusted mean difference between LI and PBO for the change in fasting plasma glucose (FPG) from baseline ([2]; wk 24, full analysis set, add-on to MET plus SU): -13 mg/dL
hypoglycemia, proportion of patients [3]: 0.6%
proportion of patients reporting at least one adverse event (AE) [3]: 52.8%
drug-related hypoglycaemia [4]: no case of hypoglycaemia

— patent publication US20120219623A1, “PHARMACEUTICAL COMPOSITIONS COMPRISING BI-1356 AND METFORMIN” (BOEHRINGER INGELHEIM INTERNATIONAL GMBH, priority 2009, published 2012)
